Experimental data as given in patent US20260285853A1, “COMPOUNDS AND METHODS FOR MODULATING SPLICING” (REMIX THERAPEUTICS INC., priority 2023, published 2026).
Counter-ions that a name gives are not always drawn.

How the values were obtained:
Format in all cases: cell-based
[1] = tested on: MYB mRNA; assay: Splicing RT-qPCR assay (THP), Table 2A
[2] = tested on: SH-SY5Y (human neuroblastoma) cells; assay: Cell viability, Cell Titer Glo 2.0 assay; conditions: read-out: Viability SHSY5Y.3 GI50
Method in brief: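 SH-SY5Y cells were exposed to serially diluted compounds in IMDM with 10% FBS and 0.1% DMSO for 72 hours at 37° C., 5% CO2. Viability was measured by CellTiter-Glo 2.0 luminescence, with medium-only wells as blank.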

[3] = tested on: HTT mRNA; assay: Splicing RT-qPCR assay (THP), Table 2A
[4] = tested on: MYB mRNA; assay: Splicing RT-qPCR assay, canonical (CJ) and alternative (AJ) junction mRNA, K562 cells; conditions: Homo sapiens, K562.3 cells, 24 hours; for AC50: read-out: MYB AJ (AC50, increase in AJ mRNA); for IC50: read-out: MYB CJ (IC50, decrease in CJ mRNA)
Method in brief: (§1)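 K562 cells in IMDM/10% FBS treated 24 h at 37 °C with an 11-point 3-fold dilution (top 10 uM, ≤0.25% DMSO). Lysates went to one-step RT-qPCR for CJ and AJ junctions, normalized to GAPDH or GUSB; ΔΔCt vs DMSO converted to RQ, then to percentage response using fixed ΔCt windows.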

[5] = tested on: HTT mRNA; assay: as above; conditions: Homo sapiens, K562.3 cells, 24 hours; for AC50: read-out: HTT AJ (AC50, increase in AJ mRNA); for IC50: read-out: HTT CJ (IC50, decrease in CJ mRNA)
Method in brief: as §1

[6] = Table 2A (THP), AJ mRNA increase, read-out: MYB AJ (increase in alternative junction mRNA, AC50)
[7] = Table 2A (THP), CJ mRNA decrease, read-out: MYB CJ (decrease in canonical junction mRNA, IC50)
[8] = Table 2A (THP), AJ mRNA increase, read-out: HTT AJ (increase in alternative junction mRNA, AC50)
[9] = Table 2A (THP), CJ mRNA decrease, read-out: HTT CJ (decrease in canonical junction mRNA, IC50)

Compound | IC50 [1, 7] [nM] | GI50 [2] [nM] | IC50 [3, 9] [nM] | IC50 [4] [nM] | IC50 [5] [nM] | IC50 ([1]; Table 2A, THP, MYB canonical junction (CJ) mRNA, read-out: MYB CJ (IC50, decrease in canonical junction mRNA)) [nM] | IC50 ([3]; Table 2A, THP, HTT canonical junction (CJ) mRNA, read-out: HTT CJ (IC50, decrease in canonical junction mRNA)) [nM] | AC50 [1, 6] [nM] | AC50 [3, 8] [nM] | AC50 [4] [nM] | AC50 [5] [nM] | AC50 ([1]; Table 2A, THP, MYB alternative junction (AJ) mRNA, read-out: MYB AJ (AC50, increase in alternative junction mRNA)) [nM] | AC50 ([3]; Table 2A, THP, HTT alternative junction (AJ) mRNA, read-out: HTT AJ (AC50, increase in alternative junction mRNA)) [nM]
CCNC1CCN(c2ccc(C(=O)Nc3cc(F)c4nc(CF)cn4c3)c3nn(C)cc23)CC1 [Compound 202, 4-[4-(ethylamino)-1-piperidyl]-N-[8-fluoro-2-(fluoromethyl)imidazo[1,2-a]pyridin-6-yl]-2-methyl-indazole-7-carboxamide] | < 100 | 100 to 1000 | 1000 to 10000 | < 100 | 1000 to 10000 |  |  | < 100 | 100 to 1000 | 100 to 1000 | 1000 to 10000 |  | 
Cc1cn2cc(NC(=O)c3ccc(N4C[C@@H](C)N[C@@H](C)C4)c4[nH]nnc34)cc(F)c2n1 [Compound 243, 7-((3S,5R)-3,5-dimethylpiperazin-1-yl)-N-(8-fluoro-2-methylimidazo[1,2-a]pyridin-6-yl)-1H-benzo[d][1,2,3]-triazole-4-carboxamide hydrochloride] | > 10000 | > 10000 | > 10000 | > 10000 | > 10000 |  |  | > 10000 | > 10000 | > 10000 | > 10000 |  | 
CN[C@H]1CCN(c2ccc(C(=O)Nc3cc(F)c4nc(C)cn4c3)c3c2nnn3C)C1 [Compound 160, N-(8-fluoro-2-methyl-imidazo[1,2-a]pyridin-6-yl)-3-methyl-7-[(3S)-3-(methylamino)-pyrrolidin-1-yl]benzotriazole-4-carboxamide] | > 10000 | > 10000 | > 10000 | > 10000 | > 10000 |  |  | > 10000 | > 10000 | > 10000 | > 10000 |  | 
COc1c(NC(=O)c2ncc(N3CCNCC3)c3cn[nH]c23)cn2cc(C)nc2c1F [Compound 606, N-(8-fluoro-7-methoxy-2-methyl-imidazo[1,2-a]pyridin-6-yl)-4-piperazin-1-yl-1H-pyrazolo[3,4-c]pyridine-7-carboxamide] |  | 100 to 1000 |  | > 10000 | > 10000 | 1000 to 10000 | > 10000 |  |  | > 10000 | > 10000 | 1000 to 10000 | > 10000
CN[C@@H]1C[C@@H](C)N(c2ccc(C(=O)Nc3cc(F)c4nc(C)cn4c3)c3nn(C)cc23)C1 [Compound 129, N-(8-fluoro-2-methyl-imidazo[1,2-a]pyridin-6-yl)-2-methyl-4-[(2R,4R)-2-methyl-4-(methylamino)pyrrol-idin-1-yl]indazole-7-carboxamide] | < 100 | 1000 to 10000 | 1000 to 10000 | 100 to 1000 | 1000 to 10000 |  |  | 100 to 1000 | 1000 to 10000 | 100 to 1000 | 1000 to 10000 |  | 
Cc1cn2nc(C(=O)Nc3ccc(N4C[C@@H](C)N[C@@H](C)C4)c4cc[nH]c34)cc(C)c2n1 [Compound 237, N-(4-[(3R,5S)-3,5-dimethylpiperazin-1-yl]-1H-indol-7-yl)-2,8-dimethylimidazo[1,2-b]pyridazine-6-carboxamide] | 1000 to 10000 | 1000 to 10000 | 1000 to 10000 | 1000 to 10000 | 1000 to 10000 |  |  | 1000 to 10000 | 1000 to 10000 | 1000 to 10000 | 1000 to 10000 |  | 
CN[C@H]1CCN(c2ccc(C(=O)Nc3cc(F)c4nc(C)cn4c3)c3nn(C)cc23)[C@@H]1C (single isomer, unassigned) [Compound 154] | 1000 to 10000 | 100 to 1000 | > 10000 | 100 to 1000 | > 10000 |  |  | 100 to 1000 | > 10000 | 100 to 1000 | > 10000 |  | 
CCNC1CCN(c2ccc(C(=O)Nc3cc(F)c4nc(COC)cn4c3)c3nn(C)cc23)CC1 [Compound 284, 4-[4-(ethylamino)-1-piperidyl]-N-[8-fluoro-2-(methoxymethyl)imidazo[1,2-a]pyridin-6-yl]-2-methyl-indazole-7-carboxamide] | > 10000 | > 10000 | > 10000 | 1000 to 10000 | 1000 to 10000 |  |  | 1000 to 10000 | > 10000 | 1000 to 10000 | > 10000 |  | 
COc1c(NC(=O)c2c(F)cc(N3CCC(NC4CC4)CC3)c3cn(C)nc23)cn2cc(C)nc2c1F [Compound 207, 4-[4-(cyclopropylamino)-1-piperidyl]-6-fluoro-N-(8-fluoro-7-methoxy-2-methyl-imidazo[1,2-a]pyridin-6-yl)-2-methyl-indazole-7-carboxamide] | < 100 | < 100 | < 100 | < 100 | < 100 |  |  | < 100 | < 100 | < 100 | < 100 |  | 
CCNC1CCN(c2ccc(C(=O)Nc3cc(F)c4nc(C)cn4c3)c3nn(C)nc23)CC1 [Compound 196, 7-[4-(ethylamino)piperidin-1-yl]-N-(8-fluoro-2-methyl-imidazo[1,2-a]pyridin-6-yl)-2-methyl-1,2,3-benzotriazole-4-carboxamide] | 100 to 1000 | 1000 to 10000 | 100 to 1000 | 100 to 1000 | 100 to 1000 |  |  | 100 to 1000 | 100 to 1000 | 100 to 1000 | 100 to 1000 |  | 
Cc1cn2nc(NC(=O)c3ccc(N4CCC(NC5CC5)CC4)c4cn(C)nc34)cc(C)c2n1 [Compound 187, 4-[4-(cyclopropylamino)-1-piperidyl]-N-(2,8-dimethylimidazo-[1,2-b]pyridazin-6-yl)-2-methyl-indazole-7-carboxamide] | 100 to 1000 | 100 to 1000 | 100 to 1000 | 100 to 1000 | 100 to 1000 |  |  | 100 to 1000 | 100 to 1000 | 100 to 1000 | 100 to 1000 |  | 

Further lines, with some results ahead:

IC50 [1, 7] [nM] | GI50 [2] [nM] | IC50 [3, 9] [nM] | IC50 [4] [nM] | IC50 [5] [nM] | IC50 ([1]; Table 2A, THP, MYB canonical junction (CJ) mRNA, read-out: MYB CJ (IC50, decrease in canonical junction mRNA)) [nM] | IC50 ([3]; Table 2A, THP, HTT canonical junction (CJ) mRNA, read-out: HTT CJ (IC50, decrease in canonical junction mRNA)) [nM] | Compound | AC50 [1, 6] [nM] | AC50 [3, 8] [nM] | AC50 [4] [nM] | AC50 [5] [nM] | AC50 ([1]; Table 2A, THP, MYB alternative junction (AJ) mRNA, read-out: MYB AJ (AC50, increase in alternative junction mRNA)) [nM] | AC50 ([3]; Table 2A, THP, HTT alternative junction (AJ) mRNA, read-out: HTT AJ (AC50, increase in alternative junction mRNA)) [nM]
< 100 | 100 to 1000 | 1000 to 10000 | < 100 | 100 to 1000 |  |  | CCN[C@@H]1CCN(c2cc(O)c(C(=O)Nc3cc(F)c4nn(C)cc4c3)c3nn(C)cc23)C1 [Compound 294, 4-[(3R)-3-(ethylamino)-pyrrolidin-1-yl]-N-(7-fluoro-2-methyl-indazol-5-yl)-6-hydroxy-2-methyl-indazole-7-carboxamide] | < 100 | 1000 to 10000 | < 100 | 1000 to 10000 |  | 
> 10000 | > 10000 | > 10000 | > 10000 | > 10000 |  |  | CCNC1CCN(c2ccc(C(=O)Nc3cc(F)c4nc(C)cn4c3)c3c2nnn3C)CC1 [Compound 198, 4-(4-(ethylamino)piperidin-1-yl)-N-(8-fluoro-2-methylimidazo[1,2-a]pyridin-6-yl)-1-methyl-1H-benzo[d][1,2,3]triazole-7-carboxamide 2,2,2-trifluoroacetate] | > 10000 | > 10000 | > 10000 | > 10000 |  | 
100 to 1000 | 1000 to 10000 | 1000 to 10000 | 100 to 1000 | 1000 to 10000 |  |  | Cc1cn2cc(NC(=O)c3ccc(C4CNCCO4)c4[nH]cnc34)cc(F)c2n1 (stereo not drawn) [Compound 194, N-(8-fluoro-2-methyl-imidazo[1,2-a]pyridin-6-yl)-7-morpholin-2-yl-1H-benzimidazole-4-carboxamide] | 100 to 1000 | > 10000 | 100 to 1000 | 1000 to 10000 |  | 
< 100 | 100 to 1000 | 100 to 1000 | < 100 | 100 to 1000 |  |  | Cc1cn2cc(NC(=O)c3ccc(N4CCC(NC5CC56CC6)CC4)c4cn(C)nc34)cc(F)c2n1 (stereo not drawn) [Compound 203, N-(8-fluoro-2-methyl-imidazo[1,2-a]-pyridin-6-yl)-2-methyl-4-[4-(spiro[2.2]pentan-2-ylamino)-1-piperidyl] indazole-7-carboxamide] | < 100 | 100 to 1000 | < 100 | 1000 to 10000 |  | 
> 10000 | 1000 to 10000 | > 10000 | > 10000 | > 10000 |  |  | Cc1cn2cc(NC(=O)c3c(F)cc(N4CCNCC4)c4occc34)cc(F)c2n1 [Compound 247, 5-fluoro-N-(8-fluoro-2-methylimidazo-[1,2-a]pyridin-6-yl)-7-piperazin-1-yl-benzofuran-4-carboxamide] | > 10000 | > 10000 | > 10000 | > 10000 |  | 
